Measured values taken from patent US20240002332A1, “Small Molecule Inhibitors of SARS-CoV-2 Infections” (priority 2020, published 2024).
Converted amounts (≈) assume the structure as drawn. Read-outs that look alike come from different tables or passages of the source.

What was measured:
[1] = Parallel artificial membrane permeability assay (PAMPA); details: for Papp / Permeability: PAMPA; for Permeability: Tier I ADME
[2] = test system: SARS CoV-2 (USA_WA1/2020); assay: Cytopathic effect (CPE) assay; format: cell-based; details: for Emax: read-out: Efficacy CPE assay
[3] = Kinetic solubility (Tier I ADME); details: kinetic from dmso stock
[4] = Rat liver microsomal (RLM) stability; details: for half-life: rat
Vero-E6 = assay: Cytotoxicity counter screen (cell viability, CellTiter-Glo); format: cell-based; details: for IC50: Chlorocebus sabaeus, read-out: IC50 (μM) cell viability
Description: Compound cytotoxicity was assessed in a BSL-2 counter screen as follows: Cell culture media (MEM, 1% Pen/Strep/GlutaMax, 1% HEPES, 2% HI FBS) was dispensed at 5 μl/well into ARPs and incubated at room temperature to allow for compound dissolution. Vero-E6 (selected for high ACE2 expression) was dispensed into assay plates at 4000 cells/well in 25 μl media. Assay plates were incubated for 72 h at 37 C, 5% CO2, 90% humidity. Then, 30 μl/well of CellTiter-Glo (Promega #G7573) was dispensed into the assay plate. Luminescence was read using a BMG PHERAstar plate reader following incubation at room temperature for 10 min to measure cell viability.

SARS-CoV-2 [5] = assay: SARS-CoV-2 viral titer in human bronchial epithelial cells (HBEC; EpiAirway); format: cell-based; details: dilutions 0.01, 0.1, 1, 10 micrograms per mL
Description: In the first part of the experiment, the test compounds were diluted in Assay medium (AIR-100-ASY). The test compound dilutions (0.01, 0.1, 1, 10 micrograms per mL) were added to each insert on the apical layer (0.15 mL) and basal layer (0.85 mL). Following the 1 h treatment, the apical medium was removed, and the basal side was replaced with fresh compound. Virus (0.15 mL) was then added to each insert on the apical layer, removed after 1 h and washed with 0.4 mL TEER buffer. The basal side medium/compound was replaced with 1 mL of Assay medium. Every twenty-four hours, the apical layer of the tissues were washed with 0.4 mL of TEER buffer and aliquoted to separate microfuge tubes. Trizol LS (1.2 mL) was added to each tube, pipetted up and down several times and stored at −80° C. The basal layer supernatant (1 mL) was collected from each well, aliquoted into separate microfuge tubes and stored at −80° C. The basal side medium was replaced with 1 mL of Maintenance Medium.
In the second part of the experiment, RNA was isolated from the trizol samples and the supernatants from all treatments were tittered by plaque assay or TCID50 to determine the amount of virus present in each sample.

in vitro [6] = details: rat, microsomes
in vitro [7] = details: PAMPA
physchem = details: kinetic from dmso stock
SARS-CoV-2 [8] = details: EIDD-2801 250 mpk BID; Compound P3 60 mpk BID
Description: EIDD-2801 (molnupiravir) was chosen as the positive control at 250 mpk BID oral dose.

ZIKV = details: cited from earlier work
[9] = Pharmacokinetics in mice IV 3 and PO 10 mg/kg; plasma, lung and liver
[10] = Severe acute respiratory syndrome coronavirus 2, Vero C1008, % inhibition of CPE, SARS-CoV-2-infected Vero-E6, 72 h
[11] = Severe acute respiratory syndrome coronavirus 2, Vero C1008, rescue IC50, SARS-CoV-2-infected Vero-E6, 72 h
[12] = Vero C1008, uninfected Vero-E6, 72 h, CellTiter-Glo
[13] = uninfected Vero-E6, 72 h, CellTiter-Glo
[14] = Severe acute respiratory syndrome coronavirus 2, Vero C1008, 72 h
[15] = mice, Compound P3 dosed PO 10 mg/kg, Liver
[16] = mice, Compound P3 dosed PO 10 mg/kg, Plasma
[17] = mouse Plasma, Compound P3 dosed IV 3 mg/kg
[18] = mouse Plasma, Compound P3 dosed PO 10 mg/kg

O=C(Nc1ccc([N+](=O)[O-])cc1Cl)c1cc(Cl)ccc1OC1CCNCC1 [Compound 4, 5-chloro-N-(2-chloro-4-nitrophenyl)-2-(piperidin-4-yloxy)benzamide]
Papp [1]: 516 ×10⁻⁶ cm/s
Emax [2, 10]: -8.3%
IC50 [2, 11]: 5.1 µM
solubility [3]: 8.4 µg/mL (≈ 20.5 µM)
half-life ([4]; rat liver microsomes): > 30 min
IC50 (Vero-E6; [12]): 4.05 µM

O=C(Nc1ccc([N+](=O)[O-])cc1Cl)c1cc(Br)ccc1O [Compound 6, 5-bromo-N-(2-chloro-4-nitrophenyl)-2-hydroxybenzamide]
Permeability [1]: 67 10^−6 cm/sec
half-life ([4]; microsomes): > 30 min
inhibition of SARS-CoV-2 (viral titer) (SARS-CoV-2 [5]): effectively inhibited SARS-CoV-2 in human bronchial epithelial cells at sub-nanomolar and nanomolar concentrations
IC50 (Vero-E6; Vero C1008, 72 h): 0.4 µM
Efficacy cell viability (Vero-E6; [13]): −94.8

O=C(Nc1ccc([N+](=O)[O-])cc1)c1cc(Cl)ccc1O [Compound 24, 5-chloro-2-hydroxy-N-(4-nitrophenyl)benzamide]
Permeability [1]: 127.13 10^−6 cm/sec
RLM stability (T1/2 min) ([4]; rat liver microsomes): 22 min
IC50 (Vero-E6; Vero C1008, 72 h): 0.57 µM
Efficacy cell viability (Vero-E6; [13]): −93.1

COc1cc([N+](=O)[O-])ccc1NC(=O)c1cc(Cl)ccc1O [Compound 27, 5-chloro-2-hydroxy-N-(2-methoxy-4-nitrophenyl)benzamide]
Permeability [1]: 334.4 10^−6 cm/sec
half-life ([4]; microsomes): > 30 min
IC50 (Vero-E6; Vero C1008, 72 h): 0.64 µM
Efficacy cell viability (Vero-E6; [13]): −92.9

N#Cc1ccc(NC(=O)c2cc(Cl)ccc2O)c(Cl)c1 [Compound 32, 5-chloro-N-(2-chloro-4-cyanophenyl)-2-hydroxybenzamide]
Papp [1]: 5.16 ×10⁻⁶ cm/s
half-life ([4]; rat liver microsomes): > 30 min
IC50 (Vero-E6; [12]): 1.01 µM
Efficacy cell viability (Vero-E6; [13]): −99.6

O=C(Nc1ccc(C(F)(F)F)cc1)c1cc(Cl)ccc1O [Compound 39, 5-chloro-2-hydroxy-N-(4-(trifluoromethyl)phenyl)benzamide]
Papp [1]: 22.3 ×10⁻⁶ cm/s
half-life ([4]; microsomes): > 30 min
IC50 (Vero-E6; Vero C1008, 72 h): 0.45 µM
Efficacy cell viability (Vero-E6; [13]): −94.6

O=C(Nc1ccc(C(F)(F)F)c(F)c1)c1cc(Br)ccc1O [Compound 59, 5-bromo-N-(3-fluoro-4-(trifluoromethyl)phenyl)-2-hydroxybenzamide]
half-life (in vitro [6]): > 30 min
IC50 (Vero-E6; [12]): 0.45 µM
Efficacy cell viability (Vero-E6; [13]): −91.7

O=C(Oc1ccc(Cl)cc1C(=O)Nc1ccc([N+](=O)[O-])cc1Cl)c1ccc(C(F)(F)F)cc1 [Compound P1, 4-chloro-2-((2-chloro-4-nitrophenyl)carbamoyl)phenyl 4-(trifluoromethyl)benzoate]
Emax [2, 10]: 34%
IC50 [2, 11]: 0.11 µM
Papp (in vitro [7]): < 2.6 ×10⁻⁶ cm/s
solubility (physchem): < 1 µg/mL
IC50 (Vero-E6; [12]): 0.57 µM
Efficacy cell viability (Vero-E6; [13]): −96.34

CCCCCCCC(=O)Oc1ccc(Cl)cc1C(=O)Nc1ccc([N+](=O)[O-])cc1Cl [Compound P2, 4-chloro-2-((2-chloro-4-nitrophenyl)carbamoyl)phenyl octanoate]
Emax [2, 10]: 36.5%
IC50 [2, 11]: 0.1 µM
Papp (in vitro [7]): < 6.5 ×10⁻⁶ cm/s
solubility (physchem): 1.1 µg/mL (≈ 2.43 µM)
IC50 (Vero-E6; [12]): 0.57 µM
Efficacy cell viability (Vero-E6; [13]): −95.8

CC(=O)Oc1ccc(Cl)cc1C(=O)Nc1ccc([N+](=O)[O-])cc1Cl [Compound P4, 4-chloro-2-((2-chloro-4-nitrophenyl)carbamoyl)phenyl acetate]
Emax [2, 10]: 36.2%
IC50 [2, 11]: 0.25 µM
Papp (in vitro [7]): 632 ×10⁻⁶ cm/s
solubility (physchem): < 1 µg/mL
IC50 (Vero-E6; [12]): 0.57 µM
Efficacy cell viability (Vero-E6; [13]): −93.0

COCC(=O)Oc1ccc(Cl)cc1C(=O)Nc1ccc([N+](=O)[O-])cc1Cl [Compound P5, 4-chloro-2-((2-chloro-4-nitrophenyl)carbamoyl)phenyl 2-methoxyacetate]
Emax [2, 10]: 37%
IC50 [2, 11]: 0.11 µM
solubility (physchem): < 1 µg/mL
IC50 (Vero-E6; [12]): 0.51 µM
Efficacy cell viability (Vero-E6; [13]): −91.2

CC(C)OC(=O)Oc1ccc(Cl)cc1C(=O)Nc1ccc([N+](=O)[O-])cc1Cl [Compound P6, 4-chloro-2-((2-chloro-4-nitrophenyl)carbamoyl)phenyl isopropyl carbonate]
Emax [2, 10]: 37.1%
IC50 [2, 11]: 0.11 µM
Papp (in vitro [7]; pH 5): 57 ×10⁻⁶ cm/s
solubility (physchem): < 1 µg/mL
IC50 (Vero-E6; [12]): 0.45 µM
Efficacy cell viability (Vero-E6; [13]): −82.3

O=C(Oc1ccc(Cl)cc1C(=O)Nc1ccc([N+](=O)[O-])cc1Cl)c1ccccc1 [Compound P7, 4-chloro-2-((2-chloro-4-nitrophenyl)carbamoyl)phenyl benzoate]
Emax [2, 10]: 26.9%
IC50 [2, 11]: 0.13 µM
solubility (physchem): < 1 µg/mL
IC50 (Vero-E6; [12]): 0.32 µM
Efficacy cell viability (Vero-E6; [13]): −94.0

CCOP(=O)(OCC)Oc1ccc(Cl)cc1C(=O)Nc1ccc([N+](=O)[O-])cc1Cl [Compound P8, 4-chloro-2-((2-chloro-4-nitrophenyl)carbamoyl)phenyl diethyl phosphate]
Papp [1]: 982 ×10⁻⁶ cm/s
IC50 [2, 14]: 0.41 µM
Emax [2, 14]: 36.8%
solubility [3]: < 1 µg/mL
half-life ([4]; microsomes): > 30 min
IC50 (Vero-E6; Vero C1008, 72 h): 0.91 µM
Efficacy cell viability (Vero-E6; [13]): −90.6

CC(C)COC(=O)Oc1ccc(Cl)cc1C(=O)Nc1ccc([N+](=O)[O-])cc1Cl [Compound P9, 4-chloro-2-((2-chloro-4-nitrophenyl)carbamoyl)phenyl isobutyl carbonate]
Emax [2, 10]: 35.2%
IC50 [2, 11]: 0.13 µM
solubility (physchem): 4.48 µg/mL (≈ 10.5 µM)
IC50 (Vero-E6; [12]): 0.57 µM
Efficacy cell viability (Vero-E6; [13]): −91.0

CC(C)C(=O)OC[C@H]1O[C@@H](n2ccc(NO)nc2=O)[C@H](O)[C@@H]1O [EIDD-2801, reference compound]
IHC immunoreactivity staining in the right lung (SARS-CoV-2 [8]): lowered in severity

O=C(Nc1ccc([N+](=O)[O-])cc1Cl)c1cc(Cl)ccc1O [Niclosamide, 5-chloro-N-(2-chloro-4-nitrophenyl)-2-hydroxybenzamide, reference compound]
ZIKV growth (ZIKV; early stages and 24 h post infection): inhibited ZIKV growth
ZIKV titer (ZIKV; human placental epithelial cells and iPSC-derived human neural progenitor cells): reduced ZIKV titer
permeability in PAMPA ([1]; result in words): unable to be quantified in the acceptor compartment
AUC_% Extrap [9, 15]: 4.4%
t1/2 [9, 15]: 7.3 h
AUC_% Extrap ([9]; mice, Compound P3 dosed PO 10 mg/kg, Lung): 0.6%
AUC0-INF [9, 16]: 1620 ng·h/mL
AUC_% Extrap [9, 16]: 1.0%
AUC_%Extrap_obs [9, 17]: 0.3%
Clast [9, 17]: 0.329 ng/mL
Tlast [9, 17]: 30 h
AUCINF_obs [9, 18]: 1620 ng·h/mL
AUC_%Extrap_obs [9, 18]: 1.0%
Clast [9, 18]: 4.04 ng/mL
Cmax [9, 18]: 346 ng/mL
Tlast [9, 18]: 30 h
t½ [9, 18]: 2.7 h
AUC(0-inf) ([9]; mouse, liver, po, 10 mg/kg): 9250 ng·h/mL
AUC(0-t) ([9]; mouse, liver, po, 10 mg/kg): 8850 ng·h/mL
Cmax ([9]; mouse, liver, po, 10 mg/kg): 882 ng/mL
AUC(0-inf) ([9]; mouse, lung, po, 10 mg/kg): 3080 ng·h/mL
AUC(0-t) ([9]; mouse, lung, po, 10 mg/kg): 3060 ng·h/mL
Cmax ([9]; mouse, lung, po, 10 mg/kg): 397 ng/mL
half-life ([9]; mouse, lung, po, 10 mg/kg): 258 min
AUC(0-inf) ([9]; mouse, plasma, iv, 3 mg/kg): 587 ng·h/mL
AUC(0-t) ([9]; mouse, plasma, iv, 3 mg/kg): 585 ng·h/mL
Cmax ([9]; mouse, plasma, iv, 3 mg/kg): 168 ng/mL
Tmax ([9]; mouse, plasma, iv, 3 mg/kg): 4.98 min
half-life ([9]; mouse, plasma, iv, 3 mg/kg): 216 min
AUC(0-t) ([9]; mouse, plasma, po, 10 mg/kg): 1600 ng·h/mL
half-life ([9]; mouse, plasma, po, 10 mg/kg): 162 min
RLM stability (T1/2 min) ([4]; rat liver microsomes): >30 min
half-life ([4]; rat liver microsomes): > 30 min
